Measured values reported in patent US9358227B2, “Pharmaceutical uses of 6-amino quinazoline or 3-cyano quinoline derivatives” (Jiangsu Hengrui Medicine Co., Ltd., priority 2009, dated 2016).

Assays:
[1] = system: xenografts of Calu-3 human lung cancer; assay: Therapeutic effects against xenografts of Calu-3 human lung cancer in nude mice; format: in vivo, BALB/cA-nude mice
Procedure: BALB/cA-nude mice, 6 to 7 weeks old, ♀, purchased from Slaccas Experimental Animal LTD., CO.
Nude mice were hypodermic inoculated Calu-3 human lung cancer cell. After tumors grew to 150-250 mm^3, mice were randomly divided into teams (d0).
The volume of tumors and the weigh of the mice were measured and recorded for 2-3 times per week.
The calculation formula of the volume of tumor (V) is: V=½×a×b^2, a: length of tumor, b: width of tumor.

[2] = Pharmacokinetics assay in rats, intragastric; format: in vivo; details: both sexes, rat, plasma, po, SD rats, 25 mg/kg, read-out: Area Under Curve AUC
Procedure: The pharmacokinetic behavior of the compounds of the present invention was studied and evaluated in rats. 8 healthy adult SD rats, male and female in half, were purchased from SINO-BRITSH SIPPR/BK LAB. ANIMAL LTD., CO, License number: SCXK (Shanghai) 2003-0002 The right amount of compounds were weighted and grinded with 0.5% Sodium Carboxymethyl cellulose uniformly, suspended them with 1% tween 80 to 2.5 mg/mL of suspension before use. […] 8 Healthy adult SD rats, male and female in half, were divided into 2 groups. After an overnight fast, the rats were administered intragastrically at a dose of 25.0 mg/kg. […] The plasma samples were stored at −20° C. until analysis. The rats were fed 2 hours after administration. 50 μL of rat plasmas taken at various time points after administration were mixed with 50 μL of standard series solution to obtain plasma concentration of 50.0, 100, 200, 500, 1000, 2000, 5000 ng/mL. 150 μL, methanol was added and then the mixture was mixed for 3 minute using a vortexer and centrifuged for 10 minutes at 13,500 rpm. 10 μL of the supernatant was analyzed by LC-MS/MS. The main pharmacokinetic parameters were calculated by DAS 2.0 software.

[3] = high dose (200 mg/kg), nude mice, Calu-3 xenograft

CCOc1cc2ncc(C#N)c(Nc3ccc(OCc4ccccn4)c(Cl)c3)c2cc1NC(=O)/C=C/[C@@H]1CCCN1C [Example 1, (E)-N-[4-[[3-Chloro-4-(2-pyridylmethoxy)phenyl]amino]-3-cyano-7-ethoxy-6-quinolyl]-3-[(2S)-1-methylpyrrolidin-2-yl]prop-2-enamide]
completely degraded fraction of the tumor [1, 3]: ⅙ | reduced fraction of the tumor volume [1, 3]: ⅙ | growth of Calu-3 human lung cancer ([1]; nude mice xenograft): markedly inhibited | AUC [2]: 52600 ± 39000 ng·h/mL

CCOc1cc2ncc(C#N)c(Nc3ccc(OCc4ccccn4)c(Cl)c3)c2cc1NC(=O)/C=C/[C@H]1CCCN1C [Example 5, (E)-N-[4-[[3-Chloro-4-(2-pyridylmethoxy)phenyl]amino]-3-cyano-7-ethoxy-6-quinolyl]-3-[(2R)-1-methylpyrrolidin-2-yl]prop-2-enamide]
AUC [2]: 52800 ± 23600 ng·h/mL
